# Test results reported in PMC9401487 (Clinical Cancer Research, 2021).
# Test system: patients with advanced solid tumors
# Assay: Phase I safety and tolerability
# Assay type: in vivo, human
# [1] = Cohort 7 (N=6), co-dosing 40 mg QD + carboplatin days 1 and 2
# [2] = Cohort 7: 40 mg QD days 1–2 + carboplatin AUC5 day 1, 6 patients
# [3] = all 36 patients, ceralasertib + carboplatin
structure (smiles),measurement,setting,value
C[C@@H]1COCCN1c1cc(C2([S@](C)(=N)=O)CC2)nc(-c2cc[nH]c3nccc2-3)n1 [ceralasertib],"TEAE Constipation, Grade 1–2",[1],"3 (50) patients, n (%)"
same,"TEAE Constipation, Grade ≥3",[1],"0 patients, n (%)"
same,"TEAE Contusion, Grade 1–2",[1],"1 (17) patients, n (%)"
same,"TEAE Contusion, Grade ≥3",[1],"0 patients, n (%)"
same,"TEAE Cough, Grade 1–2",[1],"0 patients, n (%)"
same,"TEAE Cough, Grade ≥3",[1],"0 patients, n (%)"
same,"TEAE Decreased appetite, Grade 1–2",[1],"3 (50) patients, n (%)"
same,"TEAE Decreased appetite, Grade ≥3",[1],"0 patients, n (%)"
same,"TEAE Diarrhea, Grade 1–2",[1],"1 (17) patients, n (%)"
same,"TEAE Diarrhea, Grade ≥3",[1],"0 patients, n (%)"
same,"TEAE Dizziness, Grade 1–2",[1],"0 patients, n (%)"
same,"TEAE Dizziness, Grade ≥3",[1],"0 patients, n (%)"
same,"TEAE Dyspnea, Grade 1–2",[1],"0 patients, n (%)"
same,"TEAE Dyspnea, Grade ≥3",[1],"0 patients, n (%)"
same,"TEAE Fatigue, Grade 1–2",[1],"4 (67) patients, n (%)"
same,"TEAE Fatigue, Grade ≥3",[1],"0 patients, n (%)"
same,"TEAE Hypocalcemia, Grade 1–2",[1],"1 (17) patients, n (%)"
same,"TEAE Hypocalcemia, Grade ≥3",[1],"0 patients, n (%)"
same,"TEAE Insomnia, Grade 1–2",[1],"0 patients, n (%)"
same,"TEAE Insomnia, Grade ≥3",[1],"0 patients, n (%)"
same,"TEAE Lower respiratory tract infection, Grade 1–2",[1],"0 patients, n (%)"
same,"TEAE Lower respiratory tract infection, Grade ≥3",[1],"0 patients, n (%)"
same,"TEAE Nausea, Grade 1–2",[1],"5 (83) patients, n (%)"
same,"TEAE Nausea, Grade ≥3",[1],"0 patients, n (%)"
same,"TEAE Neutropenia, Grade 1–2",[1],"0 patients, n (%)"
same,"TEAE Neutropenia, Grade ≥3",[1],"0 patients, n (%)"
same,"TEAE Neutrophil count decreased, Grade 1–2",[1],"0 patients, n (%)"
same,"TEAE Neutrophil count decreased, Grade ≥3",[1],"1 (17) patients, n (%)"
same,"TEAE Platelet count decreased, Grade 1–2",[1],"2 (33) patients, n (%)"
same,"TEAE Platelet count decreased, Grade ≥3",[1],"1 (17) patients, n (%)"
same,"TEAE Pyrexia, Grade 1–2",[1],"1 (17) patients, n (%)"
same,"TEAE Pyrexia, Grade ≥3",[1],"0 patients, n (%)"
same,"TEAE Thrombocytopenia, Grade 1–2",[1],"0 patients, n (%)"
same,"TEAE Thrombocytopenia, Grade ≥3",[1],"0 patients, n (%)"
same,"TEAE Upper respiratory tract infection, Grade 1–2",[1],"1 (17) patients, n (%)"
same,"TEAE Upper respiratory tract infection, Grade ≥3",[1],"0 patients, n (%)"
same,"TEAE Vomiting, Grade 1–2",[1],"0 patients, n (%)"
same,"TEAE Vomiting, Grade ≥3",[1],"1 (17) patients, n (%)"
same,"TEAE White blood cell count decreased, Grade 1–2",[1],"0 patients, n (%)"
same,"TEAE White blood cell count decreased, Grade ≥3",[1],"0 patients, n (%)"
same,Number of DLTs,[2],one DLT of grade 4 platelet count decreased
same,SRC decision (tolerability),[2],declared safe and well tolerated
same,Patients who discontinued treatment because of an AE,N=36,14%
same,"TEAE Abdominal pain, Grade 1–2",Total (N=36),"5 (14) patients, n (%)"
same,"TEAE Abdominal pain, Grade ≥3",Total (N=36),"1 (3) patients, n (%)"
same,"TEAE Alanine aminotransferase increased, Grade 1–2",Total (N=36),"3 (8) patients, n (%)"
same,"TEAE Alanine aminotransferase increased, Grade ≥3",Total (N=36),"1 (3) patients, n (%)"
same,"TEAE Anemia, Grade 1–2",Total (N=36),"11 (31) patients, n (%)"
same,"TEAE Anemia, Grade ≥3",Total (N=36),"14 (39) patients, n (%)"
same,"TEAE Any AE, Grade 1–2",Total (N=36),"9 (25) patients, n (%)"
same,"TEAE Any AE, Grade ≥3",Total (N=36),"27 (75) patients, n (%)"
same,"TEAE Arthralgia, Grade 1–2",Total (N=36),"4 (11) patients, n (%)"
same,"TEAE Arthralgia, Grade ≥3",Total (N=36),"0 patients, n (%)"
same,"TEAE Aspartate aminotransferase increased, Grade 1–2",Total (N=36),"3 (8) patients, n (%)"
same,"TEAE Aspartate aminotransferase increased, Grade ≥3",Total (N=36),"1 (3) patients, n (%)"
same,"TEAE Constipation, Grade 1–2",Total (N=36),"10 (28) patients, n (%)"
same,"TEAE Constipation, Grade ≥3",Total (N=36),"0 patients, n (%)"
same,"TEAE Contusion, Grade 1–2",Total (N=36),"4 (11) patients, n (%)"
same,"TEAE Contusion, Grade ≥3",Total (N=36),"0 patients, n (%)"
same,"TEAE Cough, Grade 1–2",Total (N=36),"5 (14) patients, n (%)"
same,"TEAE Cough, Grade ≥3",Total (N=36),"0 patients, n (%)"
same,"TEAE Decreased appetite, Grade 1–2",Total (N=36),"8 (22) patients, n (%)"
same,"TEAE Decreased appetite, Grade ≥3",Total (N=36),"0 patients, n (%)"
same,"TEAE Diarrhea, Grade 1–2",Total (N=36),"6 (17) patients, n (%)"
same,"TEAE Diarrhea, Grade ≥3",Total (N=36),"0 patients, n (%)"
same,"TEAE Dizziness, Grade 1–2",Total (N=36),"4 (11) patients, n (%)"
same,"TEAE Dizziness, Grade ≥3",Total (N=36),"0 patients, n (%)"
same,"TEAE Dyspnea, Grade 1–2",Total (N=36),"5 (14) patients, n (%)"
same,"TEAE Dyspnea, Grade ≥3",Total (N=36),"0 patients, n (%)"
same,"TEAE Fatigue, Grade 1–2",Total (N=36),"16 (44) patients, n (%)"
same,"TEAE Fatigue, Grade ≥3",Total (N=36),"1 (3) patients, n (%)"
same,"TEAE Hypocalcemia, Grade 1–2",Total (N=36),"4 (11) patients, n (%)"
same,"TEAE Hypocalcemia, Grade ≥3",Total (N=36),"0 patients, n (%)"
same,"TEAE Insomnia, Grade 1–2",Total (N=36),"5 (14) patients, n (%)"
same,"TEAE Insomnia, Grade ≥3",Total (N=36),"0 patients, n (%)"
same,"TEAE Lower respiratory tract infection, Grade 1–2",Total (N=36),"4 (11) patients, n (%)"
same,"TEAE Lower respiratory tract infection, Grade ≥3",Total (N=36),"1 (3) patients, n (%)"
same,"TEAE Nausea, Grade 1–2",Total (N=36),"20 (56) patients, n (%)"
same,"TEAE Nausea, Grade ≥3",Total (N=36),"1 (3) patients, n (%)"
same,"TEAE Neutropenia, Grade 1–2",Total (N=36),"4 (11) patients, n (%)"
same,"TEAE Neutropenia, Grade ≥3",Total (N=36),"9 (25) patients, n (%)"
same,"TEAE Neutrophil count decreased, Grade 1–2",Total (N=36),"0 patients, n (%)"
same,"TEAE Neutrophil count decreased, Grade ≥3",Total (N=36),"4 (11) patients, n (%)"
same,"TEAE Platelet count decreased, Grade 1–2",Total (N=36),"4 (11) patients, n (%)"
same,"TEAE Platelet count decreased, Grade ≥3",Total (N=36),"2 (6) patients, n (%)"
same,"TEAE Pyrexia, Grade 1–2",Total (N=36),"9 (25) patients, n (%)"
same,"TEAE Pyrexia, Grade ≥3",Total (N=36),"0 patients, n (%)"
same,"TEAE Thrombocytopenia, Grade 1–2",Total (N=36),"12 (33) patients, n (%)"
same,"TEAE Thrombocytopenia, Grade ≥3",Total (N=36),"13 (36) patients, n (%)"
same,"TEAE Upper respiratory tract infection, Grade 1–2",Total (N=36),"4 (11) patients, n (%)"
same,"TEAE Upper respiratory tract infection, Grade ≥3",Total (N=36),"0 patients, n (%)"
same,"TEAE Vomiting, Grade 1–2",Total (N=36),"7 (19) patients, n (%)"
same,"TEAE Vomiting, Grade ≥3",Total (N=36),"2 (6) patients, n (%)"
same,"TEAE White blood cell count decreased, Grade 1–2",Total (N=36),"0 patients, n (%)"
same,"TEAE White blood cell count decreased, Grade ≥3",Total (N=36),"5 (14) patients, n (%)"
same,"TEAE anemia, any grade, patients",[3],69.4%
same,"TEAE fatigue, any grade, patients",[3],47%
same,"TEAE grade ≥3 anemia, patients",[3],39%
same,"TEAE grade ≥3 neutropenia, patients",[3],25%
same,"TEAE grade ≥3 thrombocytopenia, patients",[3],36%
same,"TEAE nausea, any grade, patients",[3],58%
same,"TEAE neutropenia, any grade, patients",[3],36%
same,"TEAE thrombocytopenia, any grade, patients",[3],69.4%
same,AEs with a fatal outcome,all cohorts,no AEs with a fatal outcome were reported
same,"Clinical chemistry laboratory variables, vital signs, ECG parameters",all cohorts,No clinically significant findings
same,Patients with dose modifications,"cycle 1 and beyond, N=36",47%
same,Patients with dose reductions,"cycle 1 and beyond, N=36",25%
same,Patients with treatment interruptions,"cycle 1 and beyond, N=36",31%
same,MTD dose schedule (concurrent),"days 1–2, with carboplatin AUC5, 21-day cycles",40 mg once daily
same,MTD dose schedule (sequential),"days 4–13, with carboplatin AUC5, 21-day cycles",20 mg twice daily
same,Patients who experienced ≥1 TEAE,safety set N=36,36 patients
